Key:
LNCaP = test: Crystal violet proliferation assay, LNCaP; format: cell-based; conditions: AR positive, 72 h treatment, mean
Description: (§1) Cells were seeded at a density of 2 × 10^4 in 96-well plates and left to adhere overnight before treatment with the inhibitors. After 72 h of treatment, cells were fixed in 2% paraformaldehyde for 1 h, washed 3× with ddH2O and left to dry. 0.04% crystal violet (dissolved in ddH2O) was added to each well and the plates incubated for 1 h. The plates were again washed 3× with ddH2O and left to dry. Crystal violet was solubilised with 10% acetic acid (1 h at room temperature with rocking) and the optical density of each well measured at 570 nm with a plate reader (CLARIOstar, BMG Labtech, Germany).
(§2) (A) The non-tumorigenic controls PNT1A and BPH1, and prostate cancer cell lines LNCaP, C42, C42B, 22RV1, DU145 and PC3 were seeded 24 h before treatment with a dose range of the thieno[2,3-b]pyridine compounds (DJ97, DJ144, DJ145, DJ154 and DJ160). After 72 h of treatment, cells were fixed, stained with crystal violet and absorbance measured using a spectrophotometer microplate reader (FLUOstar Omega) at 490 nm. Mean ± SE of three independent repeats (six replicates for each concentration per experiment). (B) Western blotting was performed on lysates from the different cell lines and membranes probed with antibodies specific for PLCγ1, PLCγ2, AR and ⍺-tubulin. (C) PC3 cells were seeded in 10 cm plates and treated with a dose range of DJ160 for 24 h. Cells were collected and PLC activity measured, and enzymatic activity calculated. Mean of 3 repeats ± SD. TEXT PRINTED IN THE PICTURE: (C) DJ160: PLC activity (mol/min): 0.19 ± 0.005 (DJ160 (μM): 0); PLC activity (mol/min): 0.19 ± 0.005 (DJ160 (μM): 0.01); PLC activity (mol/min): 0.17 ± 0.005 (DJ160 (μM): 0.1); PLC activity (mol/min): 0.23 ± 0.004 (DJ160 (μM): 1); PLC activity (mol/min): 0.22 ± 0.010 (DJ160 (μM): 10)

C42 = test: Crystal violet proliferation assay, C42; format: cell-based; conditions: C42, AR positive, 72 h treatment, mean
Description: as §1, §2

22RV1 = test: Crystal violet proliferation assay, 22RV1; format: cell-based; conditions: Homo sapiens; 22RV1, AR positive; 72 h treatment; mean
Description: as §1, §2

BPH1 = test: Crystal violet proliferation assay, BPH1; format: cell-based; conditions: BPH1, non-tumorigenic, 72 h treatment, mean; for IC50: Homo sapiens, BPH-1
Description: as §1, §2

PC3 = test: Crystal violet proliferation assay, PC3; format: cell-based; conditions: PC3, AR negative, 72 h treatment, mean
Description: as §1, §2

C42B = test: Crystal violet proliferation assay, C42B; format: cell-based; conditions: AR positive, 72 h treatment, mean
Description: as §1, §2

PNT1A = test: Crystal violet proliferation assay, PNT1A; format: cell-based; conditions: Homo sapiens, non-tumorigenic, 72 h treatment, mean
Description: as §1, §2

DU145 = test: Crystal violet proliferation assay, DU145; format: cell-based; conditions: Homo sapiens, DU-145; DU145, AR negative; 72 h treatment; mean
Description: as §1, §2

PC3 cells [1] = test: Cell cycle analysis (PI staining, flow cytometry); format: cell-based; conditions: 1 μM, 24 h
Description: Cells were seeded in 12-well plates, incubated overnight and treated with the inhibitors. The cells were incubated for 72 h before harvesting. Cells were pelleted (200 g, 5 min) and washed with PBS. The wash was removed and cells fixed with 70% EtOH, added dropwise with agitation. The cells were incubated at 4°C overnight, pelleted, washed with PBS and resuspended in PBS containing PI and RNase A, as previously described ([Brooke et al. 2011]). The percentage of cells in each phase of the cell cycle was subsequently quantified using an Accuri C6 Flow Cytometer (BD Biosciences, USA).
Figure 3 The thieno[2,3-b]pyridine compounds promote G2/M cell cycle arrest in PC3 cells. PC3 cells were seeded at 30% confluence for 48 h and treated with 1 μM of the compounds (97, 144, 145, 154 and 160) or DMSO for (A) 24, (B) 48 and (C) 72 h. Cells were PI stained and DNA content measured using flow cytometry. The percentage of cells in each phase was calculated and representative histograms generated using the ACCURI C6 software (BD Biosciences). Data are the mean of three independent repeats.

[2] = test system: cultured human prostate tumours; test: Patient-derived tumour explants, immunohistochemistry of cleaved caspase 3; format: cell-based; conditions: explants of four patients, no/minimal apoptosis in patients 1 and 2
Description: (§3) Explant experiments were undertaken using published methodology ([Centenera et al. 2018]). Biopsy tissue from prostate cancer patients was immediately placed in ice-cold medium straight from surgery. In the lab, tissue was dissected and seeded onto a sponge (SSP101010-32, Surgispon, Anser Medical) in 24-well plates. The explants were treated with compound 160 (100 nM) or the antiandrogen enzalutamide (10 μM) and incubated at 37°C for 48 h.
The explants were formalin fixed and wax embedded. Immunohistochemistry was performed to investigate the expression of cleaved caspase 3 (Cell Signalling 9661S (1/200)) as a marker of apoptosis. Protein expression was detected using the REAL EnVision Detection System (Peroxidase/DAB, K500711-2, DAKO).
Figure 7 Thieno[2,3-b]pyridine DJ160 inhibits activity in cultured human prostate tumours. Tumours were dissected into 1 mm^3 pieces then treated with the drugs (100 nM DJ160 and 10 μM enzalutamide (ENZA)) or vehicle control (DMSO, VC) and incubated for 48 h. (A) RNA was extracted and qPCR was performed to quantify the expression of PCNA, used as a marker of proliferation. (B) Samples were formalin-fixed and immunohistochemistry performed for cleaved caspase 3 and the number of cells per field counted. Example images for patient 3 are provided (20× magnification).

PLC = PLC activity assay in treated PC3 cells; format: cell-based; conditions: 24 h; for PLC activity: mean of 3 repeats ± SD, 0 μM control 0.19 ± 0.005
Description: PC3 cells were grown in 10 cm dishes and treated with different concentrations of DJ160 for 24 h. Cells were collected and enzymatic activity quantified using a PLC Activity Assay Kit (Sigma Aldrich), following the manufacturer’s instructions.
as §2

[3] = test system: cultured human prostate tumours; test: Patient-derived tumour explants, qPCR of PCNA (proliferation marker); format: cell-based; conditions: explants of four patients, 100 nM DJ160, 48 h
Description: as §3
Explants were snap frozen until RNA was extracted using a Monarch RNA extraction kit (NEB), following disruption of frozen tissue utilising mechanical disruption and enzymatic digestion with proteinase K. Then, 2 μg of RNA was reverse transcribed using Precision Nanoscript2 RT Kit (Primer Design, UK). Changes in gene expression were measured using SYBR Green Fast Master Mix (Life Technologies, USA) and QuantStudio 7 Flex Real-Time PCR System (Applied Biosystems, USA). […]
Figure 7 Thieno[2,3-b]pyridine DJ160 inhibits activity in cultured human prostate tumours. […] (A) RNA was extracted and qPCR was performed to quantify the expression of PCNA, used as a marker of proliferation. (B) Samples were formalin-fixed and immunohistochemistry performed for cleaved caspase 3 and the number of cells per field counted. […]

breast cancer cell lines = conditions: across various breast cancer cell lines; cited from earlier work
PC3 cells [4] = test: Fluorescent imaging: multinucleation and cell size; format: cell-based; conditions: 1 μM, 24 h, no multinucleation without inhibitors
Description: Cells were seeded on glass coverslips and incubated overnight before treatment with the compounds. Cells were incubated for 24 h with the thieno[2,3-b]pyridines and fixed with 2% paraformaldehyde for 15 min at RT. Cells were washed 3 times with PBS and 0.1% Triton X-100 in PBS added for 10 min at RT. The washes were repeated and cells blocked with 1% BSA in 0.5% Tween for 30 min. Primary antibody (α-alpha-tubulin, clone B-5-1-2, Sigma Aldrich, USA) was diluted in the block buffer, added to the cells and incubated for 1 h. The cells were washed 3 times with PBS containing 0.5% Tween and secondary antibody applied (anti-mouse Alexa Fluor 568, Abcam, UK). […] To calculate the percentage of cells with multinucleation, ten random fields of view were imaged per slide using low magnification (10×) and the number of cells with more than 1 nucleus counted. Alterations in cell size were quantified using Fiji ([Schindelin et al. 2012]).
Figure 5 The thieno[2,3-b]pyridine compounds promote multinucleation and lead to an increase in cell size. […] Cells were PI stained and DNA content was measured using flow cytometry. […] Confocal microscopy was performed and five random images were taken for each treatment to quantify (C) percentage multinucleation and (D) relative cell size. […]

Compound | IC50 (LNCaP; Homo sapiens, 72 h) | IC50 (C42; C4-2, 72 h) | IC50 (22RV1) | IC50 (nM) (BPH1) | IC50 (BPH1) | IC50 (PC3; Homo sapiens, 72 h) | IC50 (C42B) | IC50 (PNT1A) | IC50 (DU145) | G2/M cell cycle arrest (PC3 cells [1]) | other results
Nc1c(C(=O)Nc2cccc(Cl)c2)sc2nc3c(cc12)C(=O)CCC3 [DJ97] | 482 nM | 334 nM | 306 nM | μM range | 3550 nM | 573 nM | 333 nM | 324 nM | 1400 nM | – | –
COc1cccc(NC(=O)c2sc3nc4c(cc3c2N)C(=O)CCC4)c1 [DJ144] | 59.4 nM | 187 nM | 185 nM | – | 443 nM | 214 nM | 150 nM | 238 nM | 271 nM | most pronounced effect | –
Nc1c(C(=O)Nc2cccc(Br)c2)sc2nc3c(cc12)C(=O)CCC3 [DJ145] | 268 nM | 468 nM | 499 nM | μM range | 4360 nM | 673 nM | 230 nM | 708 nM | 1960 nM | – | –
Nc1c(C(=O)Nc2cccc(Cl)c2)sc2nc3c(cc12)CCCC3 [DJ154] | 452 nM | 246 nM | 521 nM | – | 806 nM | 723 nM | 512 nM | 902 nM | 660 nM | – | –
Cc1c(Cl)cccc1NC(=O)c1sc2nc3c(cc2c1N)C(=O)CCC3 [DJ160] | < 50 nM | < 50 nM | 100 nM | – | 151 nM | < 50 nM | 54 nM | 82.6 nM | 83.9 nM | most pronounced effect | cleaved caspase 3-positive cells (apoptosis) ([2]; 100 nM DJ160, 48 h): increase in the percentage of cleaved caspase-positive cells in patient samples 3 and 4; PLC activity (PLC; DJ160 0.01 μM): 0.19 ± 0.005 mol/min; PLC activity (PLC; DJ160 0.1 μM): 0.17 ± 0.005 mol/min; PLC activity (PLC; DJ160 1 μM): 0.23 ± 0.004 mol/min; PLC activity (PLC; DJ160 10 μM): 0.22 ± 0.010 mol/min; effect upon pan-PLC activity (PLC; dose range): little effect; IC50 (LNCaP): 44.9 nM; IC50 (C42): 29 nM; reduction of PCNA expression compared to untreated samples [3]: approximately 80%; IC50 (breast cancer cell lines): > 100 nM; IC50 (PC3): 46.5 nM; percentage of cells with multinucleation (PC3 cells [4]): more than 30%
CNC(=O)c1ccc(N2C(=S)N(c3ccc(C#N)c(C(F)(F)F)c3)C(=O)C2(C)C)cc1F [enzalutamide, reference compound] | – | – | – | – | – | – | – | – | – | – | cleaved caspase 3-positive cells (apoptosis) ([2]; 10 μM enzalutamide, 48 h): increase in the percentage of cleaved caspase-positive cells in patient samples 3 and 4

Source: PMC12243099, “Thieno[2,3-b]pyridine compounds potently inhibit prostate cancer growth and motility” (Endocrine Oncology, 2025)
